Data published in ChEMBL document CHEMBL5050844 (2019).

Tests used:
Assay type in all cases: functional, T cell line
[1] = Induction of anti-CD3 antibodies-stimulated human T cell activation at 8 uM assessed fold increase in CD25 expression measured by ELISA assay; also: reference of the scale not given here
[2] = Induction of anti-CD3/CD28 antibodies-stimulated human T cell activation at 0.3 uM assessed fold increase in IL-2 secretion measured by ELISA assay
[3] = Induction of anti-CD3 antibodies-stimulated human T cell activation at 1 uM assessed fold increase in CD25 expression measured by ELISA assay; also: reference of the scale not given here
[4] = Induction of anti-CD3/CD28 antibodies-stimulated human T cell activation at 4 uM assessed fold increase in IL-2 secretion measured by ELISA assay
[5] = Induction of anti-CD3 antibodies-stimulated human T cell activation at 8 uM assessed fold increase in IL-2 secretion measured by ELISA assay; also: reference of the scale not given here
[6] = Induction of anti-CD3/CD28 antibodies-stimulated human T cell activation at 1 uM assessed fold increase in CD25 expression measured by ELISA assay
[7] = Induction of anti-CD3 antibodies-stimulated human T cell activation at 1 uM assessed fold increase in IL-2 secretion measured by ELISA assay; also: reference of the scale not given here
[8] = Induction of anti-CD3/CD28 antibodies-stimulated human T cell activation at 0.3 uM assessed fold increase in CD25 expression measured by ELISA assay
[9] = Induction of anti-CD3/CD28 antibodies-stimulated human T cell activation at 1 uM assessed fold increase in IL-2 secretion measured by ELISA assay
[10] = Induction of anti-CD3/CD28 antibodies-stimulated human T cell activation at 4 uM assessed fold increase in CD25 expression measured by ELISA assay

SMILES | fold change (FC) [1] | fold change (FC) [2] | fold change (FC) [3] | fold change (FC) [4] | fold change (FC) [5] | fold change (FC) [6] | fold change (FC) [7] | fold change (FC) [8] | fold change (FC) [9] | fold change (FC) [10]
Cc1[nH]cnc1CC(C)c1cccc(N2Cc3c(cccc3C(F)(F)F)C2=O)c1 (stereo not given) | <=0.6 | <=1 | <=0.6 | <=1 | 0.101 | <=1 | 0.101 | <=1 | <=1 | 1.01
Cc1ccc(C(=O)Nc2cccc([C@H](C)Sc3nncn3C)c2)nc1C | 0.601 | 1.01 | <=0.6 | 2.51 | >=0.201 | 1.01 | <=0.05 | <=1 | 2.51 | 1.31
Cc1cc(C(=O)Nc2cccc([C@H]3C[C@H]3c3nncn3C)c2)nc(C2CC2)n1 | >=1.001 | 1.01 | 0.801 | 5 | >=0.201 | 1.01 | 0.101 | 1.01 | 2.51 | 1.01
C[C@H](Cc1nncn1C)c1cccc(NC(=O)c2cccc(S(C)(=O)=O)n2)c1 | <=0.6 | 1.01 | <=0.6 | 2.51 | 0.051 | >=1.76 | 0.051 | 1.01 | 1.01 | >=1.76
C[C@H](Cc1nncn1C)c1cc(N[C@@H](C)CO)nc(N2Cc3c(cccc3C(F)(F)F)C2=O)c1 | >=1.001 | 1.01 | 0.601 | 2.51 | 0.151 | 1.01 | 0.051 | 1.01 | 1.01 | 1.01
C[C@H](Cc1nncn1C)c1cccc(NC(=O)c2cc(C3(O)COC3)cc(C(F)(F)F)n2)c1 | >=1.001 | <=1 | 0.601 | 5 | 0.101 | >=1.76 | <=0.05 | >=1.76 | 1.01 | >=1.76
C[C@H](Sc1nncn1C)c1ccnc(NC(=O)c2cc3c(C(F)(F)F)cccc3[nH]2)c1 | <=0.6 | 1.01 | <=0.6 | 1.01 | <=0.05 | <=1 | <=0.05 | <=1 | 1.01 | <=1
C[C@H](CO)Nc1cc([C@H](C)Cc2nncn2C)cc(N2Cc3c(cccc3C(F)(F)F)C2=O)n1 | >=1.001 | 1.01 | 0.801 | 5 | >=0.201 | 1.01 | 0.051 | 1.01 | 2.51 | 1.31
C[C@H](Cc1nncn1C)c1cccc(NC(=O)c2cc(C(C)(C)O)cc(C(F)(F)F)n2)c1 | >=1.001 | 1.01 | 0.801 | 5 | >=0.201 | 1.01 | 0.101 | 1.01 | 2.51 | 1.01
C[C@H](Cc1nncn1C)c1cccc(NC(=O)c2coc(C(F)(F)F)n2)c1 | 0.801 | <=1 | 0.601 | 1.01 | 0.101 | 1.01 | 0.051 | 1.01 | 1.01 | 1.01
C[C@H](Cc1nncn1C)c1cccc(NC(=O)c2cccc(C(F)(F)CO)n2)c1 | <=0.6 | <=1 | <=0.6 | <=1 | 0.051 | 1.31 | <=0.05 | 1.01 | <=1 | >=1.76
C[C@H](Sc1nncn1C)c1cccc(NC(=O)c2cc3cc(OCC(=O)NCCN)ccc3cn2)c1.Cl | 0.601 | <=1 | 0.601 | 1.01 | <=0.05 | <=1 | <=0.05 | <=1 | <=1 | 1.01
C[C@H](Cc1nncn1C)c1cccc(NC(=O)c2cc(C(F)(F)F)n[nH]2)c1 | 0.601 | 1.01 | 0.601 | 1.01 | 0.101 | 1.01 | 0.051 | 1.01 | 1.01 | 1.01
C[C@@H](Cc1nncn1C)c1cccc(NC(=O)c2cc(C3CC3)cc(C(F)(F)F)n2)c1 | 0.601 | 1.01 | 0.601 | 1.01 | 0.101 | 1.01 | 0.051 | 1.01 | 1.01 | 1.01
C[C@H](Sc1nncn1C)c1cccc(NC(=O)c2cc(C(=O)N3C[C@H](O)C[C@@H]3C)ccn2)c1 | 0.601 | >=7.5 | <=0.6 | >=7.5 | <=0.05 | 1.01 | <=0.05 | 1.01 | >=7.5 | 1.01
C[C@H](Sc1nncn1C)c1cccc(NC(=O)c2cc(C(C)(C)O)c(Cl)cn2)c1 | 0.601 | 1.01 | <=0.6 | 1.01 | <=0.05 | 1.01 | <=0.05 | 1.01 | 1.01 | 1.01
C[C@H](Cc1nncn1C)c1cccc(NC(=O)c2cc(C(C)(C)O)c(Cl)cn2)c1 | <=0.6 | 2.51 | <=0.6 | 5 | 0.101 | 1.31 | 0.051 | 1.01 | 1.01 | >=1.76
CC(Cc1nncn1C)c1cc(N[C@@H]2CCOC2)nc(N2Cc3c(cccc3C(F)(F)F)C2=O)c1 (single isomer, unassigned) | 0.801 | 1.01 | 0.601 | 1.01 | 0.101 | 1.01 | 0.051 | <=1 | 1.01 | 1.01
C[C@H](Sc1nncn1C)c1cccc(NC(=O)c2cc(C(=O)N3CC(O)C3)ccn2)c1 | 0.601 | <=1 | <=0.6 | <=1 | <=0.05 | <=1 | <=0.05 | <=1 | <=1 | <=1
CC(Cc1nncn1C)c1cc(C2CCC2)cc(N2Cc3c(cccc3C(F)(F)F)C2=O)c1 (stereo not given) | 0.801 | 1.01 | 0.601 | 1.01 | 0.051 | 1.01 | 0.051 | 1.01 | 1.01 | 1.01
C[C@H](Sc1nncn1C)c1cccc(NC(=O)c2cc(C(F)(F)F)ccn2)c1 | >=1.001 | <=1 | 0.601 | 1.01 | 0.101 | 1.01 | <=0.05 | 1.01 | 1.01 | 1.01
Cc1conc1CC(C)c1cccc(N2Cc3c(cccc3C(F)(F)F)C2=O)c1 (stereo not given) | 0.801 | 1.01 | 0.601 | 1.01 | 0.051 | 1.01 | <=0.05 | 1.01 | 1.01 | 1.01
